The values below come from ChEMBL document CHEMBL1151656, “Cucurbitacin B and isocucurbitacin B: cytotoxic components of Helicteres isora” (1985).

The nature of this test: Cytotoxicity against human 9KB cells. It is filed as functional.

Molecules are shown by their SMILES.

Turning to `CC(=O)OC(C)(C)/C=C/C(=O)[C@@](C)(O)[C@H]1[C@H](O)C[C@@]2(C)[C@@H]3CC=C4[C@@H](CC(=O)[C@@H](O)C4(C)C)[C@]3(C)C(=O)C[C@]12C` [ISOCUCURBITACIN B], the ED50 worked out at 7.6 ×10⁻⁵ ug/ml.

`CC(=O)OC(C)(C)/C=C/C(=O)[C@](C)(O)[C@H]1[C@H](O)C[C@@]2(C)[C@@H]3CC=C4[C@H](C[C@H](O)C(=O)C4(C)C)[C@]3(C)C(=O)C[C@]12C` [CUCURBITACIN B] yielded an ED50 of under 1 ×10⁻⁵ ug/ml.
